Experimental data: US20180148418A1, “AMIDO-SUBSTITUTED CYCLOHEXANE DERIVATIVES” (Bayer Pharma Aktiengesellschaft, priority 2015, published 2018)

Experiments:
[1] = test system: wildtype Wnt signaling cascade; assay: HEK293 TOP assay (Super TopFlash luciferase reporter, Wnt-3a stimulated); assay type: cell-based; conditions: Homo sapiens, HEK293, 16 h, HEK293 TOP reporter cells, Wnt3a at EC50, 16 hours
In short: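 HEK293 cells stably carrying Super TopFlash (TOP) run in parallel with FOP cells, 10000/well plated 24 h ahead, stimulated with recombinant human Wnt-3a. Compounds tested 50 μM to 15 nM in 3.16-fold steps in CAFTY buffer pH 7.4 with 2 mM Ca^2+ and 0.01% BSA; luciferase read-out.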

TNKS1 = target: T1, TNKS1 (Homo sapiens, UniProt O95271); assay: TNKS1 Assay B (auto-parsylation, [3H]-NAD+ SPA); assay type: biochemical; conditions: 6 nM TNKS1, auto-parsylation, over night at room temperature
T1 construct: purchased BPS Bioscience, San Diego, USA 80579 (TNKS1 Histone Ribosylation Assay Kit)
T1 sequence (O95271 1-1327): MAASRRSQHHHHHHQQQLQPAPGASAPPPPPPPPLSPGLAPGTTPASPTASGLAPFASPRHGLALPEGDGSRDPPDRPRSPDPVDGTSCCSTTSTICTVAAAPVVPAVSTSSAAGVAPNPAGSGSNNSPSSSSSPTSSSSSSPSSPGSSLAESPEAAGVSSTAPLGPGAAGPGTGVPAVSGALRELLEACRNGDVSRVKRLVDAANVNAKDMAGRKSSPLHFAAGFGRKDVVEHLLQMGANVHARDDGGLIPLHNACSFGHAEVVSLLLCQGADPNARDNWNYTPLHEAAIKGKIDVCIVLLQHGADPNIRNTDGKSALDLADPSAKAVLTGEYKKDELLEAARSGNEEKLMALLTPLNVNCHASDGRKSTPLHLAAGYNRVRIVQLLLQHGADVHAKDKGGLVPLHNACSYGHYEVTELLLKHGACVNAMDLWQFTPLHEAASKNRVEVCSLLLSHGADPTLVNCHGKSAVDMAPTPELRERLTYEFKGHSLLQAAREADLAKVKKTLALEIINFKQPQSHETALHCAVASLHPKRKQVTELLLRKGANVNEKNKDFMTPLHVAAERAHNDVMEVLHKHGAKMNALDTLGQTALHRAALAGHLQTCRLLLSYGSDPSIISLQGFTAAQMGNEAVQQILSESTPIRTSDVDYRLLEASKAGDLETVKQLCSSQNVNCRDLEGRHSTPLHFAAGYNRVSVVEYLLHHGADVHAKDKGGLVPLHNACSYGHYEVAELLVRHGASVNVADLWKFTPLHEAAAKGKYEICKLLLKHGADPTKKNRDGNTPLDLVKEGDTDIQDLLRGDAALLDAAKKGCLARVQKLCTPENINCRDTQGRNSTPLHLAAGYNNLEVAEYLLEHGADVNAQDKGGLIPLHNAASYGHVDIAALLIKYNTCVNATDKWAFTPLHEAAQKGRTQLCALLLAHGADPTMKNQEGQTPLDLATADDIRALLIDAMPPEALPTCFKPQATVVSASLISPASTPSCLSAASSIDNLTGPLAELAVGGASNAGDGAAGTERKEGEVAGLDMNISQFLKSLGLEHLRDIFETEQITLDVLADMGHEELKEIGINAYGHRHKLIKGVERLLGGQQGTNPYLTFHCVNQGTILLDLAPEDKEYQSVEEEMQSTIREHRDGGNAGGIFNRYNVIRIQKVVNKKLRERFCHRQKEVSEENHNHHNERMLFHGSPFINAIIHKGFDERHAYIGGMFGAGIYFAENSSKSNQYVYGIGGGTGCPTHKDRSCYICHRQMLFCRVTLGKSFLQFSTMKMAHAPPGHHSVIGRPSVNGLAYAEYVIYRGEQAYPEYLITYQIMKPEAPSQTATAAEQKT

SMILES | IC50 [1] [nM] | IC50 (TNKS1) [nM]
CC(=O)c1cnc2c(C(=O)N[C@H]3CC[C@H](C(=O)Nc4ccc(F)cc4Cl)CC3)cnn2c1C [Example 46, 6-acetyl-N-{trans-4-[(2-chloro-4-fluorophenyl)carbamoyl]cyclohexyl}-7-methylpyrazolo[1,5-a]pyrimidine-3-carboxamide] | 97 | 65
O=C(N[C@H]1CC[C@H](C(=O)Nc2ccc(F)cc2Cl)CC1)c1cnc2ccc(Cl)nn12 [Example 47, 6-chloro-N-{trans-4-[(2-chloro-4-fluorophenyl)carbamoyl]cyclohexyl}imidazo[1,2-b]pyridazine-3-carboxamide] | 390 | 530
O=C(N[C@H]1CC[C@H](C(=O)Nc2ccc(F)cc2Cl)CC1)c1cnc2ccc(N3CCOCC3)nn12 [Example 48, N-{trans-4-[(2-chloro-4-fluorophenyl)carbamoyl]cyclohexyl}-6-(morpholin-4-yl)imidazo[1,2-b]pyridazine-3-carboxamide] | 410 | 410
CN1CCN(c2ccc3ncc(C(=O)N[C@H]4CC[C@H](C(=O)Nc5ccc(F)cc5Cl)CC4)n3n2)CC1 [Example 49, N-{trans-4-[(2-chloro-4-fluorophenyl)carbamoyl]cyclohexyl}-6-(4-methylpiperazin-1-yl)imidazo[1,2-b]pyridazine-3-carboxamide] | 680 | 400
COc1ccc2ncc(C(=O)N[C@H]3CC[C@H](C(=O)Nc4ccc(F)cc4Cl)CC3)n2n1 [Example 50, N-{trans-4-[(2-chloro-4-fluorophenyl)carbamoyl]cyclohexyl}-6-methoxyimidazo[1,2-b]pyridazine-3-carboxamide] | 350 | 110
O=C(N[C@H]1CC[C@H](C(=O)Nc2ccc(F)cc2Cl)CC1)c1cnc2ccc(N3CCCC3)nn12 [Example 51, N-{trans-4-[(2-chloro-4-fluorophenyl)carbamoyl]cyclohexyl}-6-(pyrrolidin-1-yl)imidazo[1,2-b]pyridazine-3-carboxamide] | 290 | 83
CN(C)c1ccc2ncc(C(=O)N[C@H]3CC[C@H](C(=O)Nc4ccc(F)cc4Cl)CC3)n2n1 [Example 52, N-{trans-4-[(2-chloro-4-fluorophenyl)carbamoyl]cyclohexyl}-6-(dimethylamino)imidazo[1,2-b]pyridazine-3-carboxamide] | 150 | 22
CNc1ccc2ncc(C(=O)N[C@H]3CC[C@H](C(=O)Nc4ccc(F)cc4Cl)CC3)n2n1 [Example 53, N-{trans-4-[(2-chloro-4-fluorophenyl)carbamoyl]cyclohexyl}-6-(methylamino)imidazo[1,2-b]pyridazine-3-carboxamide] | 400 | 150
Cc1c(C(C)O)cnc2c(C(=O)N[C@H]3CC[C@H](C(=O)Nc4ccc(F)cc4Cl)CC3)cnn12 (stereo partly drawn) [Example 58, N-{trans-4-[(2-chloro-4-fluorophenyl)carbamoyl]cyclohexyl}-6-(1-hydroxyethyl)-7-methylpyrazolo[1,5-a]pyrimidine-3-carboxamide] | 1100 | 740
Nc1nn2cccnc2c1C(=O)N[C@H]1CC[C@H](C(=O)Nc2ccc(F)cc2Cl)CC1 [Example 59, 2-amino-N-{trans-4-[(2-chloro-4-fluorophenyl)carbamoyl]cyclohexyl}pyrazolo[1,5-a]pyrimidine-3-carboxamide] | 1300 | 950
Cc1cc(C(C)(C)C)n2ncc(C(=O)N[C@H]3CC[C@H](C(=O)Nc4ccc(F)cc4Cl)CC3)c2n1 [Example 60, 7-tert-butyl-N-{trans-4-[(2-chloro-4-fluorophenyl)carbamoyl]cyclohexyl}-5-methylpyrazolo[1,5-a]pyrimidine-3-carboxamide] | 620 | > 10000
Cc1cnc2c(C(=O)N[C@H]3CC[C@H](C(=O)Nc4ccc(F)cc4Cl)CC3)cnn2c1 [Example 61, N-{trans-4-[(2-chloro-4-fluorophenyl)carbamoyl]cyclohexyl}-6-methylpyrazolo[1,5-a]pyrimidine-3-carboxamide] | 21 | 120
Cc1cc(C2CC2)nc2c(C(=O)N[C@H]3CC[C@H](C(=O)Nc4ccc(F)cc4Cl)CC3)cnn12 [Example 62, N-{trans-4-[(2-chloro-4-fluorophenyl)carbamoyl]cyclohexyl}-5-cyclopropyl-7-methylpyrazolo[1,5-a]pyrimidine-3-carboxamide] | 12000 | > 10000
CNC(=O)c1nc[nH]c1C(=O)N[C@H]1CC[C@H](C(=O)Nc2cc(C)c(F)cc2Cl)CC1 [Example 63, N^5-{trans-4-[(2-chloro-4-fluoro-5-methylphenyl)carbamoyl]cyclohexyl}-N^4-methyl-1H-imidazole-4,5-dicarboxamide] | 54 | 57
Cc1cc(NC(=O)[C@H]2CC[C@H](NC(=O)c3[nH]cnc3C(=O)NCC3CCCO3)CC2)c(Cl)cc1F (stereo partly drawn) [Example 64, N^5-{trans-4-[(2-chloro-4-fluoro-5-methylphenyl)carbamoyl]cyclohexyl}-N^4-(tetrahydrofuran-2-ylmethyl)-1H-imidazole-4,5-dicarboxamide] | 740 | 59
COCC(C)NC(=O)c1nc[nH]c1C(=O)N[C@H]1CC[C@H](C(=O)Nc2c(F)cc(F)cc2Cl)CC1 (stereo partly drawn) [Example 65, N^5-{trans-4-[(2-chloro-4,6-difluorophenyl)carbamoyl]cyclohexyl}-N^4-(1-methoxypropan-2-yl)-1H-imidazole-4,5-dicarboxamide] | 230 | 170
COC[C@H](C)NC(=O)c1nc[nH]c1C(=O)N[C@H]1CC[C@H](C(=O)Nc2c(F)cc(F)cc2Cl)CC1 [Example 66, N^5-{trans-4-[(2-chloro-4,6-difluorophenyl)carbamoyl]cyclohexyl}-N^4-[(2S)-1-methoxypropan-2-yl]-1H-imidazole-4,5-dicarboxamide] | 250 | 310
COC[C@@H](C)NC(=O)c1nc[nH]c1C(=O)N[C@H]1CC[C@H](C(=O)Nc2c(F)cc(F)cc2Cl)CC1 [Example 67, N^5-{trans-4-[(2-chloro-4,6-difluorophenyl)carbamoyl]cyclohexyl}-N^4-[(2R)-1-methoxypropan-2-yl]-1H-imidazole-4,5-dicarboxamide] | 220 | 250
COC(C)CNC(=O)c1nc[nH]c1C(=O)N[C@H]1CC[C@H](C(=O)Nc2c(F)cc(F)cc2Cl)CC1 (stereo partly drawn) [Example 68, N^5-{trans-4-[(2-chloro-4,6-difluorophenyl)carbamoyl]cyclohexyl}-N^4-(2-methoxypropyl)-1H-imidazole-4,5-dicarboxamide] | 120 | 60
O=C(NCC1CCCO1)c1nc[nH]c1C(=O)N[C@H]1CC[C@H](C(=O)Nc2c(F)cc(F)cc2Cl)CC1 (stereo partly drawn) [Example 69, N^5-{trans-4-[(2-chloro-4,6-difluorophenyl)carbamoyl]cyclohexyl}-N^4-(tetrahydrofuran-2-ylmethyl)-1H-imidazole-4,5-dicarboxamide] | 170 | 57
O=C(NC[C@H]1CCCO1)c1nc[nH]c1C(=O)N[C@H]1CC[C@H](C(=O)Nc2c(F)cc(F)cc2Cl)CC1 [Example 70, N^5-{trans-4-[(2-chloro-4,6-difluorophenyl)carbamoyl]cyclohexyl}-N^4-[(2R)-tetrahydrofuran-2-ylmethyl]-1H-imidazole-4,5-dicarboxamide] | 220 | 78
O=C(N[C@H]1CC[C@H](C(=O)Nc2ccc(F)cc2Cl)CC1)c1[nH]cnc1C(=O)N1CC(F)(F)C1 [Example 72, N-{trans-4-[(2-chloro-4-fluorophenyl)carbamoyl]cyclohexyl}-4-[(3,3-difluoroazetidin-1-yl)carbonyl]-1H-imidazole-5-carboxamide] | 140 | 55
